Several values for one entry are separate records, joined by “and”; a condition that tells them apart may be missing. Equal entries are not always repeated.

Data set [1] deals with L. amazonensis promastigotes. The experiment in a line: Antiproliferation assay: L. amazonensis promastigotes (72 h), MTT. It counts as cell-based, Leishmania amazonensis (IFLA/BR/1967/PH8). The conditions noted are these: Leishmania amazonensis; 72 h exposure. Here is the method:
(§1) Leishmania amazonensis promastigotes (IFLA/BR/1967/PH8) for the 24 h exposure test were cultivated in RPMI 1640, supplemented with 20% v/v heat inactivated fetal bovine serum (FBS) and incubated at 26°C until near the end of the log growth phase. Leishmania amazonensis (IFLA/BR/1967/PH8) and L. infantum (MCAN/BR/2008/1112) promastigotes used in the 72 h exposure test were cultivated in Warren’s medium (containing brain heart infusion- BHI plus hemin and folic acid), supplemented with 10% FBS, 0.1% of the antibiotics: 100 UI/mL penicillin G and 0.1 mg/mL streptomycin. Leishmania amazonensis (IFLA/BR/1967/PH8) transfected with the red fluorescent protein (RFP) gene was cultured in M199 medium (containing 0.1 mmol/L adenine, 40 mmol/L hepes, 0.0005% hemin and 0.0002% biotin), supplemented with 10% FBS, and 0.1% of the antibiotic. Parasites were maintained at 25°C in a BOD incubator.
(§2) Extracts and isolated compounds were tested against L. amazonensis promastigotes (IFLA/BR/1967/PH8 strain - 2x10^5 cells/well) and L. infantum promastigotes (MCAN/BR/2008/1112 strain - 3x10^5 cells/well). The samples were solubilized in DMSO (<1%), serially diluted (100 μg/mL to 1.56 μg/mL) and tested in a 96-well plate to obtain a dose-response curve. Miltefosine and DMSO were used as positive and negative controls, respectively. After 72 h, 10 μL of 3-(4,5-dimethylthiazol-2-yl)-2,5-diphenyl tetrazolium bromide (5 mg/mL—MTT, Sigma-Aldrich) solution was added to each well and the plate returned to the incubator for an additional 4 h. To halt the reaction, 100 μL acidified isopropanol was added to each well. Plates were read at 570 nm in a microplate reader (Multiskan MS, LabSystems Oy, Helsinki, Finland).

Data set [2] deals with L. infantum promastigotes. As to the kind of experiment: Antiproliferation assay: L. infantum promastigotes (72 h), MTT. In kind it is cell-based, Leishmania infantum (MCAN/BR/2008/1112). The conditions noted are these: Leishmania infantum, 72 h, 72 h exposure. Here is the method: as §1, §2
Data set [3] relates to L. amazonensis amastigotes. As to the kind of experiment: L. amazonensis amastigotes assay (RFP parasites in peritoneal macrophages). In kind it is cell-based, Leishmania amazonensis (IFLA/BR/1967/PH8). Here is the method:
Peritoneal macrophages obtained from BALB/c mice were transferred to a 24-well plate (6x10^5 cells/well) in RPMI 1640 medium supplemented with 10% inactivated FBS and 20 mM L-glutamine, pH 7.2. The plate was incubated at 37°C in 5% CO2 for 24 h. After this period, macrophages were infected with L. amazonensis (IFLA/BR/1967/PH8) transfected with RFP in the stationary growth phase using a ratio 1:10 (macrophages/parasites) at 33°C for 4 h. The non-phagocytosed parasites were subsequently removed by extensive PBS wash, and samples added at non-toxic concentrations, in accordance with the cytotoxicity tests (100 μg/mL to 1.56 μg/mL) to determine the IC50 for the intracellular parasite. After 72 h, the supernatant was removed from the wells and 200 μL of deionized water added to each well to lyse the cell membrane. After lysis, the resulting supernatants were transferred to a black 96-well plate. The plate was read in a fluorescence spectrophotometer (FLx800, BioTek Instruments, Inc., Winooski, VT, USA) with 540/600 nm of excitation/emission. Wells containing macrophages infected with L. amazonensis (RFP) […] only were used as negative controls.

A short description of data set [4]: Cytotoxicity assay (MTT). In kind it is cell-based, BALB/c mice. The conditions noted are these: female, BALB/c, mouse, murine peritoneal macrophages; 72 h exposure. Here is the method: Female BALB/c mice pre-inoculated with 3% thioglycollate medium were used to obtain macrophages from the peritoneal cavity. Peritoneal exudate was collected 72 h post-inoculation using cold Hank´s Balanced Salt Solution and the assay performed as previously reported. Briefly, peritoneal macrophages in RPMI 1640 medium were transferred to a 96-well plate (2x10^5 cells/well) and incubated at 37°C in 5% CO2 for 24 h to allow adhesion. Samples were serially diluted (100 μg/mL to 0.78 μg/mL), added to the plate with the cells and incubated under the same conditions for 72 h. MTT (10 μL/well) was subsequently added and the plates re-incubated for a further 2 h. To halt the reaction, 100 μL of acidified isopropanol was added to each well. The plate was then read at 570 nm in a microplate reader (Multiskan MS, LabSystems Oy, Helsinki, Finland).

The test system of data set [5] is L. amazonensis promastigotes. As to the kind of experiment: Reactive oxygen species (ROS) detection (H2DCFDA). It counts as cell-based, Leishmania amazonensis. The conditions noted are these: 24 h; 2 at 33.8 μM, 3 at 11.4 μM. Here is the method: Fluorescence intensity was detected using a fluorimetric microplate reader (FLx800, BioTek Instruments, Inc., Winooski, VT, USA), at 485/528 nm excitation/emission. Promastigotes incubated with miltefosine (44.2 μM) were used as a positive control.

In data set [6] the test system is L. amazonensis promastigotes. The experiment in a line: Cell membrane integrity (propidium iodide). It counts as cell-based, Leishmania amazonensis. The conditions noted are these: 24 h; 2 at 33.8 μM, 3 at 11.4 μM. Here is the method:
Plates were incubated with propidium iodide (PI) (1.0 μg/mL—Sigma-Aldrich, USA, St. Louis, MO, USA) for 15 min in the dark at RT. Fluorescence was measured using a spectrofluorometer (FLx800, BioTek Instruments, Inc., Winooski, VT, USA) with 540/600 nm excitation/emission. Parasites heated at 65 °C were used as the positive control.

The test system of data set [7] is L. amazonensis promastigotes. The experiment in a line: Neutral lipid quantification (Nile Red). It counts as cell-based, Leishmania amazonensis. The conditions noted are these: 24 h; 2 at 33.8 μM, 3 at 11.4 μM. Here is the method: After 24 h of exposure, the parasites (1x10^7 cells/well) were stained with 10 μg/mL Nile Red (Sigma-Aldrich, St. Louis, MO, USA) in the dark for 20 min at 25°C. Fluorescence intensity was analysed in a spectrofluorometer (BioTek Instruments, Inc., Winooski, VT, USA) using 485/528 nm excitation/emission.

Data set [8] has as its system L. amazonensis promastigotes. As to the kind of experiment: Transmission electron microscopy (TEM). It counts as cell-based, Leishmania amazonensis. To be noted: 11.4 μM, 24 h. Here is the method:
Leishmania amazonensis promastigotes (10^7 cells/mL) were treated with compound 3 (11.4 μM) or incubated with controls (medium alone or medium plus 0.01% DMSO) for 24 h at 26°C. The parasites were subsequently washed in PBS, fixed in 2.5% glutaraldehyde (in 0.1 M sodium cacodylate buffer) at pH 7.2 for 45 min at room temperature. After fixation, the specimens were washed three times successively with 0.1 M sodium cacodylate buffer, and postfixed in 1% osmium tetroxide, 0.8% potassium ferricyanide, and 5 mM of the CaCl2 in 0.1 M of the sodium cacodylate buffer (0.1 M, pH 7.2). Dehydration was performed in acetone, followed by the embedding resin (Spur, Sigma-Aldrich®). Ultrathin sections were contrasted with uranyl acetate and lead citrate and observed under a transmission electron microscope (JEOL 1011).

As usually defined, the IC50 is the concentration that gives 50% inhibition. The low end stands for greater potency, the high end for weaker potency. By CC50 is commonly meant the concentration that lowers cell viability or growth by half. For `C=C[C@@H](c1cc(CC=C(C)C)ccc1O)c1cc(CC=C(C)C)c(OC)cc1O` [Compound 3, connarin], the IC50 in data set [1] was 4.5 µg/mL and 11.4 µM; in data set [2] it was 5.2 µg/mL and 13.3 µM; in data set [3] (Leishmania amazonensis, Peritoneal macrophage, intracellular, 72 h), 1.13 µg/mL and 2.9 µM. Further, the “SI (Selectivity Index)” value in data set [3] (CC50 macrophages / IC50 L. amazonensis amastigotes) turned out to be 6.3. Moreover, the cytotoxic concentration (CC50) at 72 h in data set [4] is 7.2 µg/mL and 18.3 µM. Also, in data set [5], the ROS level result is “no alteration in the ROS level”. Further, the “plasma membrane integrity (PI-positive parasites)” value in data set [6] is given as “did not interfere with plasma membrane permeation”. Further, the “increase in neutral lipid levels in relation to the untreated control” value in data set [7] is given as 82.0%. Besides, in data set [8], the “ultrastructural modification (TEM)” value was “showed lipid bodies and the presence of vacuoles”.

The record behind these values is publication PMC7647111, “Antileishmanial compounds from Connarus suberosus: Metabolomics, isolation and mechanism of action” (PLoS ONE, 2020).
